Data as given in ChEMBL document CHEMBL4507319 (2021).

Key:
[1] = molecular target: Eukaryotic translation initiation factor 2-alpha kinase 1 (Homo sapiens) (UniProt Q9BQI3); assay: HRI(h) Eurofins kinase panel; conditions: Compound concentration 1.0 uM
[2] = molecular target: Platelet-derived growth factor receptor beta (Homo sapiens) (UniProt P09619); assay: PDGFRbeta(h) Eurofins kinase panel; conditions: Compound concentration 1.0 uM
[3] = molecular target: T1, Serine/threonine-protein kinase D1 (Homo sapiens) (UniProt Q15139); assay: PKCmu (h) Eurofins kinase panel; conditions: Compound concentration 1.0 uM
T1 sequence (whole entry): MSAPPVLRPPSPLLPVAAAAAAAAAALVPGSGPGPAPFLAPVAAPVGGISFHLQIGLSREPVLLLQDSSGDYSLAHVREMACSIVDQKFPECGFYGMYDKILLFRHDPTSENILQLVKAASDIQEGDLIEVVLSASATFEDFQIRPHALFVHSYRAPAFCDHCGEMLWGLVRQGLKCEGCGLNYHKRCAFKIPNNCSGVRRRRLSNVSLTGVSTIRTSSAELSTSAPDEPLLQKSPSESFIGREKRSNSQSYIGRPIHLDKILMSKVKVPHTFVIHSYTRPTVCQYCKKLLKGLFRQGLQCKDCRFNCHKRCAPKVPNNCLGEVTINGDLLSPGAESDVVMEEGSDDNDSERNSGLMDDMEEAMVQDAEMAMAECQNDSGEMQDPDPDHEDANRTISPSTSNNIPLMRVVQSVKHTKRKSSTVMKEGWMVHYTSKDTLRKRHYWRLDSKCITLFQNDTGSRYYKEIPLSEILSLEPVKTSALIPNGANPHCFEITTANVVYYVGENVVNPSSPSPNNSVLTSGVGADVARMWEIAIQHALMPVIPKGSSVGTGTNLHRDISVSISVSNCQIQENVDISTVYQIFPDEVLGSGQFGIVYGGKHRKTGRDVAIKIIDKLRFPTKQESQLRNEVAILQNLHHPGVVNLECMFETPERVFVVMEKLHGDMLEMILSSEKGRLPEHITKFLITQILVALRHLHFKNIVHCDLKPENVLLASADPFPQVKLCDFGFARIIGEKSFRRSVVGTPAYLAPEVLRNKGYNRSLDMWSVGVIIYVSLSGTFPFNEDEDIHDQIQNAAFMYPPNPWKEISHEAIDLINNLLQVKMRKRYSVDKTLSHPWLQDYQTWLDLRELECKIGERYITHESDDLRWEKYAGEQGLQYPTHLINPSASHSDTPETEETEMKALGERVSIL

[4] = molecular target: CDK4/Cyclin D3 (Homo sapiens) (UniProt P11802+P30281); assay: CDK4/cyclinD3(h) Eurofins kinase panel; format: protein-complex assay; conditions: Compound concentration 1.0 uM
[5] = molecular target: T2, Bone morphogenetic protein receptor type-2 (Homo sapiens) (UniProt Q13873); assay: BMPR2(h) Eurofins kinase panel; conditions: Compound concentration 1.0 uM
T2 sequence (whole entry): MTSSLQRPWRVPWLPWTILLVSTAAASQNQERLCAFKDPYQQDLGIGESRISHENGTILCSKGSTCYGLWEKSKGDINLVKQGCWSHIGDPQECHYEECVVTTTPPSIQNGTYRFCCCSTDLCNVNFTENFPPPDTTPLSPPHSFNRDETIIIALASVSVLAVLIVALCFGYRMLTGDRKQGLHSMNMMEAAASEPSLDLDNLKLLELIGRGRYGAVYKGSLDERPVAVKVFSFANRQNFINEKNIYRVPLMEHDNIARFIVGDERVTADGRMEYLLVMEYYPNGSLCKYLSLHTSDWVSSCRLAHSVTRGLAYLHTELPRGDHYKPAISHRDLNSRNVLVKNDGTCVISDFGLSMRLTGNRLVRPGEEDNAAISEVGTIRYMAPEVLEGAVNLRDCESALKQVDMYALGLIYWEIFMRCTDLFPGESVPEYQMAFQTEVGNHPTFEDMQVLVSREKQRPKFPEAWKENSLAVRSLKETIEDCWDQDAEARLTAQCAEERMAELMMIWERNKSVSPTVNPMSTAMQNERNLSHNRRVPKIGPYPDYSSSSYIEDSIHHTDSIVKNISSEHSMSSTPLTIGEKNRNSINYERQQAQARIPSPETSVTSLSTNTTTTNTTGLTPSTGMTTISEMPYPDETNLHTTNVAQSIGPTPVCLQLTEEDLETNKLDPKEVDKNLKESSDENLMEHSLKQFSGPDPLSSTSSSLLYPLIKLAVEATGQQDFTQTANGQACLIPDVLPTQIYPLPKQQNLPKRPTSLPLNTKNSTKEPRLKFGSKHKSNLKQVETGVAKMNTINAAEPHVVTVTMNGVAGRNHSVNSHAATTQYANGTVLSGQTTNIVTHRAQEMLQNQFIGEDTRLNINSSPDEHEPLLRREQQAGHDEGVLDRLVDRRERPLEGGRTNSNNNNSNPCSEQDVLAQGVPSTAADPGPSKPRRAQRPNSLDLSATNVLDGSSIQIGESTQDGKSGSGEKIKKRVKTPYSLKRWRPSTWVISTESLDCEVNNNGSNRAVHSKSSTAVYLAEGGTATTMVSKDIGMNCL

[6] = molecular target: Death-associated protein kinase 1 (Homo sapiens) (UniProt P53355); assay: DAPK1(h) Eurofins kinase panel; conditions: Compound concentration 1.0 uM
Death-associated protein kinase 1 (Homo sapiens), sequence (P53355 whole entry, looked up): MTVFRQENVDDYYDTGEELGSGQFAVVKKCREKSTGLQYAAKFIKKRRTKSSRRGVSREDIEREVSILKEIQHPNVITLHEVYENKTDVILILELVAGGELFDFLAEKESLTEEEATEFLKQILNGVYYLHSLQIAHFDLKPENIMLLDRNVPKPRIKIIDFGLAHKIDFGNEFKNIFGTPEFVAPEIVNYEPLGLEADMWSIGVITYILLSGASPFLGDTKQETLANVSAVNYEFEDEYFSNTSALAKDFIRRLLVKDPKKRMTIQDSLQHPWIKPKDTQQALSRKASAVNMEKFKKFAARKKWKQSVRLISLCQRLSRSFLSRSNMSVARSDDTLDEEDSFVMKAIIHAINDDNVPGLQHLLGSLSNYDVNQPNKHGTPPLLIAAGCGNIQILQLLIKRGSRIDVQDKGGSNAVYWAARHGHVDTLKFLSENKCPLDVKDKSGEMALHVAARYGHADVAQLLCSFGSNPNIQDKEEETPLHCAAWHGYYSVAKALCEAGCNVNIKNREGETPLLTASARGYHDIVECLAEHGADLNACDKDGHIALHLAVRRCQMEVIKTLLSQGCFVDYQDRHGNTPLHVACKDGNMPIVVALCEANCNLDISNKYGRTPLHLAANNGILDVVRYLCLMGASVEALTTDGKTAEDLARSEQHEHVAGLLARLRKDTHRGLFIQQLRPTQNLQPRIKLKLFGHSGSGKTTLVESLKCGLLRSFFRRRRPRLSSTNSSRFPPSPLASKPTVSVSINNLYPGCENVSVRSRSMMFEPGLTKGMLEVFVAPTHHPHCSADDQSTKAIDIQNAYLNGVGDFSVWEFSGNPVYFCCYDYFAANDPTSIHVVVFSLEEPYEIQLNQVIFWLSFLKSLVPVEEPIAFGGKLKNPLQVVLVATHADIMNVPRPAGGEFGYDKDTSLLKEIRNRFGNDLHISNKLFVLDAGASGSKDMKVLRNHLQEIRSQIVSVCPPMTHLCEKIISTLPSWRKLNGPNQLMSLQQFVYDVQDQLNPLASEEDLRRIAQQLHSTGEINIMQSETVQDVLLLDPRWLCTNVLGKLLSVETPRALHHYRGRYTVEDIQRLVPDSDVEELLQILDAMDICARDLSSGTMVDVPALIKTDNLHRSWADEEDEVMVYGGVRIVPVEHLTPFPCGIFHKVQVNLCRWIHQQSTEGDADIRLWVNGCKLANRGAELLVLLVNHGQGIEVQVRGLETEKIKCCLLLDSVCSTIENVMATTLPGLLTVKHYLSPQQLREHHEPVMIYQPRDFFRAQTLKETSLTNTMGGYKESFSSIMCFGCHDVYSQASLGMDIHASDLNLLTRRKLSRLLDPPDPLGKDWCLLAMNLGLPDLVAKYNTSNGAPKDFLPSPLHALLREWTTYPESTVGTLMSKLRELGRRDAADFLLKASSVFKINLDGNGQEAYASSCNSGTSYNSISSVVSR

[7] = molecular target: Dual specificity protein kinase CLK1 (Homo sapiens) (UniProt P49759); assay: CLK1(h) Eurofins kinase panel; conditions: Compound concentration 1.0 uM
Dual specificity protein kinase CLK1 (Homo sapiens), sequence (P49759 whole entry, looked up): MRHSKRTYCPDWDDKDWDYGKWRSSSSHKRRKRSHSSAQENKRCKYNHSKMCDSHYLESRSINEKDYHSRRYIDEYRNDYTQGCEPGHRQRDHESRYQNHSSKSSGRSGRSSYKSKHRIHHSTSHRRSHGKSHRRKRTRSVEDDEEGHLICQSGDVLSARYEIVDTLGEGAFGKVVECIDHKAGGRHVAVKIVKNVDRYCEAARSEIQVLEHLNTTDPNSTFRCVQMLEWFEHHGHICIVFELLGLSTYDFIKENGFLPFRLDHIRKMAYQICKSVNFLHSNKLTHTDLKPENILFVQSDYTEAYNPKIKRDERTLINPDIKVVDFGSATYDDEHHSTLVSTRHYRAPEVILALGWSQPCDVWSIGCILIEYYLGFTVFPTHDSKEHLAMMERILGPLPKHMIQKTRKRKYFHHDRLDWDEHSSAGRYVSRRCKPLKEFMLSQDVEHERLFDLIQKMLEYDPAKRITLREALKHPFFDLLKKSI

[8] = molecular target: Receptor-interacting serine/threonine-protein kinase 2 (Homo sapiens) (UniProt O43353); assay: RIPK2(h) Eurofins kinase panel; conditions: Compound concentration 1.0 uM
Receptor-interacting serine/threonine-protein kinase 2 (Homo sapiens), sequence (O43353 whole entry): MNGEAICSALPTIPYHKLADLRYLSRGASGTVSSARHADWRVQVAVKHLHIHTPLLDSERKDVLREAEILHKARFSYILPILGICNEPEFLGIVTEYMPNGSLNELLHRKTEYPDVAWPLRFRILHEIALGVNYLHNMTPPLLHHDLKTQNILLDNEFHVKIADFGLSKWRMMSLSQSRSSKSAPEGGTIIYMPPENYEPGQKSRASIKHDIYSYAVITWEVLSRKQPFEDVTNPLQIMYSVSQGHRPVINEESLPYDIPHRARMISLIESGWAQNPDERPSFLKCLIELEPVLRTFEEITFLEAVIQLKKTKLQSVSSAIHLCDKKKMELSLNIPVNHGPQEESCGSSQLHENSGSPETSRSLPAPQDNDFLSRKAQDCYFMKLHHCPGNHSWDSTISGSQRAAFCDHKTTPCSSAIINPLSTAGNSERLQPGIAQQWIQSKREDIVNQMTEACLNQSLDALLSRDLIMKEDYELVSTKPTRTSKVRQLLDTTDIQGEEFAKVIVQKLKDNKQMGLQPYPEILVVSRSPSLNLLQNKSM

[9] = molecular target: Serine/threonine-protein kinase 24 (Homo sapiens, UniProt Q9Y6E0)
Serine/threonine-protein kinase 24, sequence (Q9Y6E0 whole entry, the tested form may be a part): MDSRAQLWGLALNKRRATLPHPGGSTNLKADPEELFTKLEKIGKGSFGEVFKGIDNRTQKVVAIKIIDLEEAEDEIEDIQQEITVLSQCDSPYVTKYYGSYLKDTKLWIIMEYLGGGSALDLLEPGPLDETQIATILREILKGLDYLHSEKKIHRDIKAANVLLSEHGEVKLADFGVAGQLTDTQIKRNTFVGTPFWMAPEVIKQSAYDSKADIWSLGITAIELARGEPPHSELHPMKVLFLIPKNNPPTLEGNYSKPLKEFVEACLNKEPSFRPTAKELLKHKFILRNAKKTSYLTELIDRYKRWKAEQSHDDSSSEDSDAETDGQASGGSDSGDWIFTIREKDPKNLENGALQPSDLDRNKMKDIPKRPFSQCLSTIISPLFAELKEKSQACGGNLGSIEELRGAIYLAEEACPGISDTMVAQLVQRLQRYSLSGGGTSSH

[10] = molecular target: Phosphatidylinositol 4-phosphate 3-kinase C2 domain-containing subunit alpha (Homo sapiens) (UniProt O00443); assay: PI3KC2a(h) Eurofins kinase panel; conditions: Compound concentration 1.0 uM
[11] = molecular target: Protein kinase C theta type (Homo sapiens) (UniProt Q04759); assay: PKCtheta (h) Eurofins kinase panel; conditions: Compound concentration 1.0 uM

Platelet-derived growth factor receptor beta (Homo sapiens), sequence (P09619 whole entry): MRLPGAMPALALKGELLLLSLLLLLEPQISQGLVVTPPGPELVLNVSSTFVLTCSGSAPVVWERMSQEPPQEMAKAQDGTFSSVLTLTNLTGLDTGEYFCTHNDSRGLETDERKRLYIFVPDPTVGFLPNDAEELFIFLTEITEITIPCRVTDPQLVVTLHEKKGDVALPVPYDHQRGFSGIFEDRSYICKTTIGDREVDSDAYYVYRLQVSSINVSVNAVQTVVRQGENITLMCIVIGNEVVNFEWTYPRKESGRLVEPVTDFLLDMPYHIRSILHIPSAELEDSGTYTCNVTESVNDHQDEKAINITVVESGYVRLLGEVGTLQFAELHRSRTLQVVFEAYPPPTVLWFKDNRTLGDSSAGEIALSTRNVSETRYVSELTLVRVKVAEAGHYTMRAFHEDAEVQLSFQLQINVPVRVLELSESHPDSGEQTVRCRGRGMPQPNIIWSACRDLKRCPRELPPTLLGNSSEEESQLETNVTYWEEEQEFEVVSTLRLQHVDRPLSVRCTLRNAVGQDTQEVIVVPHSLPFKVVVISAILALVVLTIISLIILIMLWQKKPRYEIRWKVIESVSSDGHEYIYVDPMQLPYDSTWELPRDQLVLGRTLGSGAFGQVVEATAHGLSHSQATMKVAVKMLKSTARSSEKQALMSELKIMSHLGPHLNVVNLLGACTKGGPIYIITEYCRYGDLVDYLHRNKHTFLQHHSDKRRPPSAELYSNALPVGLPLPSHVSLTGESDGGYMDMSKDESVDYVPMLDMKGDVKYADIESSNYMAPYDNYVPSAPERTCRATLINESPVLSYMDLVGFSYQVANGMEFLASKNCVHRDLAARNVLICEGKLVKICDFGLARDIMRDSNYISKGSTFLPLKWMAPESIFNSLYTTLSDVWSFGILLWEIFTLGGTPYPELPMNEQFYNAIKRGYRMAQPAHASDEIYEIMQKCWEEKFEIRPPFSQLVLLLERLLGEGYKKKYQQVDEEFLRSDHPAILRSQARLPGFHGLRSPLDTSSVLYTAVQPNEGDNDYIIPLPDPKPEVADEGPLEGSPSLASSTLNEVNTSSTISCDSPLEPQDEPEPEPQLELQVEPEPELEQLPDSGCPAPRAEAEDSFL
Eukaryotic translation initiation factor 2-alpha kinase 1 (Homo sapiens), sequence (Q9BQI3 whole entry): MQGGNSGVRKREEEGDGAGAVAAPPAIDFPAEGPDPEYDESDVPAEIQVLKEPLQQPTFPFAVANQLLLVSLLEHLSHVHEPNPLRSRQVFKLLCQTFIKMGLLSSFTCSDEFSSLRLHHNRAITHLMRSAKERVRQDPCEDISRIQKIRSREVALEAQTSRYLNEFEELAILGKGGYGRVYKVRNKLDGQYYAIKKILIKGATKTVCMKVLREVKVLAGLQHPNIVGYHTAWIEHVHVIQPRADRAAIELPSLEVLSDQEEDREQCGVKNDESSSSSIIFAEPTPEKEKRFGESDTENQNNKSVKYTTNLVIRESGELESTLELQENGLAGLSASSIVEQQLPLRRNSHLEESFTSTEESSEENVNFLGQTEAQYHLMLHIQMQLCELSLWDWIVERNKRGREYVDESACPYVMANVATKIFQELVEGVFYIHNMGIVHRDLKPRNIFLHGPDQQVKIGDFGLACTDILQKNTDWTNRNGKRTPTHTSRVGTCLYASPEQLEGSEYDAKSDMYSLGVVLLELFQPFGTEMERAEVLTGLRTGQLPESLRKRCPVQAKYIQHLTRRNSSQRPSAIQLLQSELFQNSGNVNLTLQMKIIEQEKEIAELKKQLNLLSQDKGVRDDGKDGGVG

## CCc1ccccc1C(=O)Nc1n[nH]c2c(C)c(F)c(C3C(C#N)=C(C)N(C)C(C)=C3C#N)cc12 [BAY-3827]
[1]
  % residual kinase activity: 100%
[2]
  % residual kinase activity: 108%
[3]
  % residual kinase activity: 96%
[4]
  % residual kinase activity: 112%
[5]
  % residual kinase activity: 104%
[6]
  % residual kinase activity: 100%
[7]
  % residual kinase activity: 108%
[8]
  % residual kinase activity: 115%
[9]
  IC50: 0.094 µM
[10]
  % residual kinase activity: 103%
[11]
  % residual kinase activity: 33%
